Assays:
[1] = molecular target: T1, human α1H T-type channels (Homo sapiens, UniProt O95180); assay: T-type calcium channel block, whole cell patch clamp in HEK cells (α1H); type: cell-based; settings: HEK cells, patch clamp, mainly non-inactivated protocol; values above 10 μM shown as 10 μM; read-out: T-type Calcium Channel Block α1H IC50
T1 construct: expressed in transfected cells; host or cells: HEK 293

[2] = molecular target: T2, human α1G T-type channels (Homo sapiens, UniProt O43497); assay: T-type calcium channel block, whole cell patch clamp in HEK cells (α1G); type: cell-based; settings: HEK cells, patch clamp, mainly non-inactivated protocol; values above 10 μM shown as 10 μM, below 0.30 μM shown as 0.30 μM; read-out: T-type Calcium Channel Block α1G IC50
T2 construct: expressed in transfected cells; host or cells: HEK 293
T2 sequence (O43497 whole entry): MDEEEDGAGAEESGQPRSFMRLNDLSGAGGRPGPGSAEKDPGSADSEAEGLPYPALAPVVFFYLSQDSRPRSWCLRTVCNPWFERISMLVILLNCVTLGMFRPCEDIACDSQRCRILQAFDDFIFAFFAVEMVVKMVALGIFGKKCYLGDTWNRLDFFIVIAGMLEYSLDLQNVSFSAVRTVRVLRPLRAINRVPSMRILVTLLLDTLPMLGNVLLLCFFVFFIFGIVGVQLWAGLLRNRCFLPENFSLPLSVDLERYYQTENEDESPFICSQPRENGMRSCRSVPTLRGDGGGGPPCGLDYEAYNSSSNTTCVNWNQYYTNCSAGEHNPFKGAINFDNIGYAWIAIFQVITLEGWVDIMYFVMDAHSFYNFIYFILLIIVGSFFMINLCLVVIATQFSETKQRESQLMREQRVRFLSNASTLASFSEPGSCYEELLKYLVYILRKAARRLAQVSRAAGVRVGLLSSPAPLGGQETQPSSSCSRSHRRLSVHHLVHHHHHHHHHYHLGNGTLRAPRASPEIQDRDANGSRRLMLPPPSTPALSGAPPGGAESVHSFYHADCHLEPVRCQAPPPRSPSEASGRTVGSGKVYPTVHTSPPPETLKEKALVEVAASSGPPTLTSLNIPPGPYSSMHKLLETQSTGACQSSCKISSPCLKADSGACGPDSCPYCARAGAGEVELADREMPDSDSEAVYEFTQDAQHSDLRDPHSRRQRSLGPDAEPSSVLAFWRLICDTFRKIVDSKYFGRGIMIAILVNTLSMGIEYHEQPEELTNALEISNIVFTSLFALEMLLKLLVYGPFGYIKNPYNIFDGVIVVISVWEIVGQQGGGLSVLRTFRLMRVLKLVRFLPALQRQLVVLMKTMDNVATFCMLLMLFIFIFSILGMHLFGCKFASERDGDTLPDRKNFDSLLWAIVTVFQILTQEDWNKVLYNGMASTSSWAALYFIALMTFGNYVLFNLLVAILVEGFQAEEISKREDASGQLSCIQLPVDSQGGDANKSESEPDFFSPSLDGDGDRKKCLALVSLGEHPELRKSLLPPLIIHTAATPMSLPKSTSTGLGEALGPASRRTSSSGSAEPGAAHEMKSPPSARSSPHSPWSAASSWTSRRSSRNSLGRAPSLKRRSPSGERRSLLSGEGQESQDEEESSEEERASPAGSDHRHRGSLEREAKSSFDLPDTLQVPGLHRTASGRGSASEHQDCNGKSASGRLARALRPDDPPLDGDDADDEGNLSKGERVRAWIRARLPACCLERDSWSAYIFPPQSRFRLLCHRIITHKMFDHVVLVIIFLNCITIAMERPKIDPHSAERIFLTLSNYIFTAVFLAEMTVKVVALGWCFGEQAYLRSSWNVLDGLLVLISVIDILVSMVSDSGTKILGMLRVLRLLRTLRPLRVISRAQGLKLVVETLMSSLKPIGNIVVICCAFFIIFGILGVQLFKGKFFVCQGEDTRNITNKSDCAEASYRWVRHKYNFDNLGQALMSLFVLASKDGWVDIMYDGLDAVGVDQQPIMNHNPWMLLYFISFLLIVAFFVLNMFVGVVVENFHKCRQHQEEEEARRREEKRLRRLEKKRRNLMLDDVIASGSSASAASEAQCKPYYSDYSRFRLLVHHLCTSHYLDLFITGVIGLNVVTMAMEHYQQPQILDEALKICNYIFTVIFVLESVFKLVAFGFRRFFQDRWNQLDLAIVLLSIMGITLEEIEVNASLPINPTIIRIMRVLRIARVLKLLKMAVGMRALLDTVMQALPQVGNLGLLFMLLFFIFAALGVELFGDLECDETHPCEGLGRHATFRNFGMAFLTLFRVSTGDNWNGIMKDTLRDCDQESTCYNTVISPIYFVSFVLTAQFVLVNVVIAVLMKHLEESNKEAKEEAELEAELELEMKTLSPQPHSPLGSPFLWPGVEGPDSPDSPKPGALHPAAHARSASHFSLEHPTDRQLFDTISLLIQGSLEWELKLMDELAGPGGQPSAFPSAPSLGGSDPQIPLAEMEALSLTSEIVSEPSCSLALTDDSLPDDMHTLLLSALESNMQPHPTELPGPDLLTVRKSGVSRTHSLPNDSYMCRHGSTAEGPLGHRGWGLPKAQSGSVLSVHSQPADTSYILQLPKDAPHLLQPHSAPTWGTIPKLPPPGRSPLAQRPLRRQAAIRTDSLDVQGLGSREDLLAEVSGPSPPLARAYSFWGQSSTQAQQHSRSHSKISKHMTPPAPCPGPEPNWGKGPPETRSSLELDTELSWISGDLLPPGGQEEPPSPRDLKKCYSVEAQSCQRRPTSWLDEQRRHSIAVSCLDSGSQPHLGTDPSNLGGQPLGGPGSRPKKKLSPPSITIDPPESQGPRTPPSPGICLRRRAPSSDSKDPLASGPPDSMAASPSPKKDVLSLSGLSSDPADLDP

T1 sequence (O95180 whole entry): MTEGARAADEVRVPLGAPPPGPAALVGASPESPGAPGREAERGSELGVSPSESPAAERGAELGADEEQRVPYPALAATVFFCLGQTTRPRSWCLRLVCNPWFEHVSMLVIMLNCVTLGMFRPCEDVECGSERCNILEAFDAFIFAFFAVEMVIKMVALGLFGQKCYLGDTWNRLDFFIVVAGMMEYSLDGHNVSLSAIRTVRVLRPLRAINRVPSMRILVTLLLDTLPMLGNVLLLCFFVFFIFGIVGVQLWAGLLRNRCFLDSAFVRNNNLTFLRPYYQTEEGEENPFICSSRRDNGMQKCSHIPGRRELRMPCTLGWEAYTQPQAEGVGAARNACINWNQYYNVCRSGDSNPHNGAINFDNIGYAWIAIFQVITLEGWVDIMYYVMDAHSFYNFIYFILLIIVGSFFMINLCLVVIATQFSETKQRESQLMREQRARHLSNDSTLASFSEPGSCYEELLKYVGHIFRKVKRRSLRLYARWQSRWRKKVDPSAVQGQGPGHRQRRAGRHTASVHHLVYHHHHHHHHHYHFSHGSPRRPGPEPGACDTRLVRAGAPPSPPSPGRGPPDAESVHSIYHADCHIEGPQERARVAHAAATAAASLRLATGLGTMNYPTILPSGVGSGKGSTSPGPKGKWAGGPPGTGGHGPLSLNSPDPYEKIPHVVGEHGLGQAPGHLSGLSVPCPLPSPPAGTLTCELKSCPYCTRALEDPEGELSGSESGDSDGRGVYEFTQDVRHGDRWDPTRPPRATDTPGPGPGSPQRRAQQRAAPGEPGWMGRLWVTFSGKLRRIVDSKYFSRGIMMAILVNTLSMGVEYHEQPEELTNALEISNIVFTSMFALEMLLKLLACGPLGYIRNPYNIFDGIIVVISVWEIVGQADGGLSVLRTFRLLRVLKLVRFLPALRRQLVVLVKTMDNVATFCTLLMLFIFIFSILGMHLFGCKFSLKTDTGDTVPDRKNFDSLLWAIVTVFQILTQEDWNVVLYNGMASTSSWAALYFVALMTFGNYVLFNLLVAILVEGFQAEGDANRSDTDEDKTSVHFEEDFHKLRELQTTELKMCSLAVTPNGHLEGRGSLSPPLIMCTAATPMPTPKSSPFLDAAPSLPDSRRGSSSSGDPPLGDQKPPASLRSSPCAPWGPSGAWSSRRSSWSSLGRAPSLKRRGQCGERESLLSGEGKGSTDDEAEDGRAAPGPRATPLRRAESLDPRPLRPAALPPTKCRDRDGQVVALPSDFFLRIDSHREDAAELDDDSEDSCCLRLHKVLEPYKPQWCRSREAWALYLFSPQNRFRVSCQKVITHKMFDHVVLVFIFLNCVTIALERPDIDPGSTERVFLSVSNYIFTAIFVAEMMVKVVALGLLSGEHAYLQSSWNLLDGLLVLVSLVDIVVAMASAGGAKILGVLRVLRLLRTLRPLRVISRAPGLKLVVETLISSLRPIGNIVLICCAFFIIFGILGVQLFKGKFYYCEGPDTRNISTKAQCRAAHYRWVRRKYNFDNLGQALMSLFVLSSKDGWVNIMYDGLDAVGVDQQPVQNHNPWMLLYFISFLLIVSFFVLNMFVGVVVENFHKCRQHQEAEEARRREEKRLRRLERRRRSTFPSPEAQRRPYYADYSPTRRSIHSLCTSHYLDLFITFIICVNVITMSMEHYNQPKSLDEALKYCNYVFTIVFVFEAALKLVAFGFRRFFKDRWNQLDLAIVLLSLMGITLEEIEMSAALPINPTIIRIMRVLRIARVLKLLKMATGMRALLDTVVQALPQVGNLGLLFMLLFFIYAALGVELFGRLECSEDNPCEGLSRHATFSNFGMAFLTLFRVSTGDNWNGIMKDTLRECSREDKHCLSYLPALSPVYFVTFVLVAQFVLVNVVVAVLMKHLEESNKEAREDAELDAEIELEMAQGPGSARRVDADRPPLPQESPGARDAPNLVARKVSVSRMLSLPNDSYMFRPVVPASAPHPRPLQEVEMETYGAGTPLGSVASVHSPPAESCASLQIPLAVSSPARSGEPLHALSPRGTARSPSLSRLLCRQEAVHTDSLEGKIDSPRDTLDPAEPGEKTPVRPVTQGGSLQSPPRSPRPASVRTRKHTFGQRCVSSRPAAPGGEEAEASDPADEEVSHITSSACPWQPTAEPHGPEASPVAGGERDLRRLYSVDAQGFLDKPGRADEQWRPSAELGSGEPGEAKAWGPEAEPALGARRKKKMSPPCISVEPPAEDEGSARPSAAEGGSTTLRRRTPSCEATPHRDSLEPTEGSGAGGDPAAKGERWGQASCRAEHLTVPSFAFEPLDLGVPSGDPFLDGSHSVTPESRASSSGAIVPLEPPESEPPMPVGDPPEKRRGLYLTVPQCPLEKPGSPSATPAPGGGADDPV

Row | Structure (SMILES) | IC50 [1] | IC50 [2]
1 | COc1cc(C(=O)NCC2CCN(CCNS(=O)(=O)C(F)(F)F)CC2)cc(C(F)(F)F)c1 [Compound 327, 3-methoxy-5-(trifluoromethyl)-N-((1-(2-(trifluoromethylsulfonamido)ethyl)piperidin-4-yl)methyl)benzamide] | 740 nM | < 300 nM
2 | O=C(NCC1CCN(CCNS(=O)(=O)C(F)(F)F)CC1)c1ccc(C(F)(F)F)c(F)c1 [Compound 328, 3-fluoro-4-(trifluoromethyl)-N-((1-(2-(trifluoromethylsulfonamido)ethyl)piperidin-4-yl)methyl)benzamide] | 1550 nM | 1030 nM
3 | O=C(NCC1CCN(CCNS(=O)(=O)C(F)(F)F)CC1)c1cc(F)cc(Cl)c1 [Compound 329, 3-chloro-5-fluoro-N-((1-(2-(trifluoromethylsulfonamido)ethyl)piperidin-4-yl)methyl)benzamide] | 4050 nM | 3240 nM
4 | O=C(NCC1CCN(CCNS(=O)(=O)C(F)(F)F)CC1)c1cccc(Br)c1 [Compound 330, 3-bromo-N-((1-(2-(trifluoromethylsulfonamido)ethyl)piperidin-4-yl)methyl)benzamide] | > 10000 nM | > 10000 nM
5 | Cc1cc(F)cc(C(=O)NCC2CCN(CCNS(=O)(=O)C(F)(F)F)CC2)c1 [Compound 331, 3-fluoro-5-methyl-N-((1-(2-(trifluoromethylsulfonamido)ethyl)piperidin-4-yl)methyl)benzamide] | > 10000 nM | > 10000 nM
6 | O=C(NCC1CCN(CCNS(=O)(=O)C2CC2)CC1)c1cc(Cl)sc1Cl [Compound 333, 2,5-dichloro-N-((1-(2-(cyclopropanesulfonamido)ethyl)piperidin-4-yl)methyl)thiophene-3-carboxamide] | 2420 nM | 800 nM
7 | CC(C)(F)C(=O)NCCN1CCC(CNC(=O)c2cc(C(F)(F)F)cc(C(F)(F)F)c2)CC1 [Compound 335, N-((1-(2-(2-fluoro-2-methylpropanamido)ethyl)piperidin-4-yl)methyl)-3,5-bis(trifluoromethyl) benzamide] | 310 nM | 330 nM
8 | CC(C)(F)C(=O)NCCN1CCC(CNC(=O)c2cc(F)cc(C(F)(F)F)c2)CC1 [Compound 336, 3-fluoro-N-((1-(2-(2-fluoro-2-methylpropanamido)ethyl)piperidin-4-yl)methyl)-5-(trifluoromethyl)benzamide] | 1160 nM | 1750 nM
9 | CC1(C(=O)NCCN2CCC(CNC(=O)c3cc(C(F)(F)F)cc(C(F)(F)F)c3)CC2)CC1 [Compound 337, N-((1-(2-(1-methylcyclopropanecarboxamido)ethyl)piperidin-4-yl)methyl)-3,5-bis(trifluoromethyl)benzamide] | 370 nM | 270 nM
10 | CC(C)(C(=O)NCCN1CCC(CNC(=O)c2cc(C(F)(F)F)cc(C(F)(F)F)c2)CC1)C(F)(F)F [Compound 338, N-((1-(2-(3,3,3-trifluoro-2,2-dimethylpropanamido)ethyl)piperidin-4-yl)methyl)-3,5-bis(trifluoromethyl) benzamide] | 160 nM | < 300 nM
11 | CC(C)(C(=O)NCCN1CCC(CNC(=O)c2cc(F)cc(C(F)(F)F)c2)CC1)C(F)(F)F [Compound 339, 3-fluoro-N-((1-(2-(3,3,3-trifluoro-2,2-dimethylpropanamido)ethyl)piperidin-4-yl)methyl)-5-(trifluoromethyl)benzamide] | 130 nM | < 300 nM
12 | O=C(NCC1CCN(CCNC(=O)C2(C(F)(F)F)CCCC2)CC1)c1cc(C(F)(F)F)cc(C(F)(F)F)c1 [Compound 340, 3,5-bis(trifluoromethyl)-N-((1-(2-(1-(trifluoromethyl)cyclopentanecarbox-amido)ethyl)piperidin-4-yl)methyl) benzamide] | 120 nM | < 300 nM
13 | O=C(NCC1CCN(CCNC(=O)C2(C(F)(F)F)CCCC2)CC1)c1cc(F)cc(C(F)(F)F)c1 [Compound 341, 3-fluoro-5-(trifluoromethyl)-N-((1-(2-(1-(trifluoromethyl)cyclopentanecarbox-amido)ethyl)piperidin-4-yl)methyl) benzamide] | 120 nM | < 300 nM
14 | O=C(NCC1CCN(CCNC(=O)C2(C(F)(F)F)CC2)CC1)c1cc(C(F)(F)F)cc(C(F)(F)F)c1 [Compound 342, 3,5-bis(trifluoromethyl)-N-((1-(2-(1-(trifluoromethyl)cyclopropanecarbox-amido)ethyl)piperidin-4-yl)methyl) benzamide] | 70 nM | < 300 nM
15 | CCCNC(=O)CN1CCC(CNC(=O)c2cc(C(F)(F)F)cc(C(F)(F)F)c2)CC1 [Compound 345, N-((1-(2-oxo-2-(propylamino)ethyl)piperidin-4-yl)methyl)-3,5-bis(trifluoromethyl)benzamide] | 110 nM | < 300 nM
16 | CCC(C)(C)NC(=O)CN1CCC(CNC(=O)c2cc(C(F)(F)F)cc(C(F)(F)F)c2)CC1 [Compound 346, N-((1-(2-oxo-2-(tert-pentylamino)ethyl)piperidin-4-yl)methyl)-3,5-bis(trifluoromethyl) benzamide] | 50 nM | < 300 nM
17 | COCC(COC)NC(=O)CN1CCC(CNC(=O)c2cc(C(F)(F)F)cc(C(F)(F)F)c2)CC1 [Compound 347, N-((1-(2-(1,3-dimethoxypropan-2-ylamino)-2-oxoethyl)piperidin-4-yl)methyl)-3,5-bis(trifluoromethyl) benzamide] | 240 nM | < 300 nM
18 | O=C(NCC1CCN(CC(=O)N2CC[C@H](C(F)(F)F)C2)CC1)c1cc(C(F)(F)F)cc(C(F)(F)F)c1 [Compound 348, (S)-N-((1-(2-oxo-2-(3-(trifluoromethyl)pyrrolidin-1-yl)ethyl)piperidin-4-yl)methyl)-3,5-bis(trifluoromethyl)benzamide] | 110 nM | < 300 nM
19 | O=C(NCC1CCN(CC(=O)N2CCC(F)CC2)CC1)c1cc(C(F)(F)F)cc(C(F)(F)F)c1 [Compound 349, N-((1-(2-(4-fluoropiperidin-1-yl)-2-oxoethyl)piperidin-4-yl)methyl)-3,5-bis(trifluoromethyl)benzamide] | 300 nM | < 300 nM
20 | CC(C)NC(=O)CN1CCC(CNC(=O)c2cc(F)cc(C(F)(F)F)c2)CC1 [Compound 350, 3-fluoro-N-((1-(2-(isopropylamino)-2-oxoethyl)piperidin-4-yl)methyl)-5-(trifluoromethyl)benzamide] | 750 nM | 910 nM
21 | CCCNC(=O)CN1CCC(CNC(=O)c2cc(F)cc(C(F)(F)F)c2)CC1 [Compound 351, 3-fluoro-N-((1-(2-oxo-2-(propylamino)ethyl)piperidin-4-yl)methyl)-5-(trifluoromethyl)benzamide] | 1300 nM | 1720 nM
22 | CC1(NC(=O)CN2CCC(CNC(=O)c3cc(F)cc(C(F)(F)F)c3)CC2)CCC1 [Compound 352, 3-fluoro-N-((1-(2-(1-methylcyclo-butylamino)-2-oxoethyl)piperidin-4-yl)methyl)-5-(trifluoromethyl) benzamide] | 80 nM | < 300 nM
23 | CCC(C)(C)NC(=O)CN1CCC(CNC(=O)c2cc(F)cc(C(F)(F)F)c2)CC1 [Compound 353, 3-fluoro-N-((1-(2-oxo-2-(tert-pentylamino)ethyl)piperidin-4-yl)methyl)-5-(trifluoromethyl)benzamide] | 60 nM | < 300 nM
24 | COCC(COC)NC(=O)CN1CCC(CNC(=O)c2cc(F)cc(C(F)(F)F)c2)CC1 [Compound 354, N-((1-(2-(1,3-dimethoxypropan-2-ylamino)-2-oxoethyl)piperidin-4-yl)methyl)-3-fluoro-5-(trifluoromethyl) benzamide] | 2140 nM | 1840 nM
25 | O=C(NCC1CCN(CC(=O)N2CC[C@H](C(F)(F)F)C2)CC1)c1cc(F)cc(C(F)(F)F)c1 [Compound 355, (S)-3-fluoro-N-((1-(2-oxo-2-(3-(trifluoromethyl)pyrrolidin-1-yl)ethyl)piperidin-4-yl)methyl)-5-(trifluoromethyl)benzamide] | 160 nM | < 300 nM
26 | O=C(NCC1CCN(CC(=O)N2CCC(F)CC2)CC1)c1cc(F)cc(C(F)(F)F)c1 [Compound 356, 3-fluoro-N-((1-(2-(4-fluoropiperidin-1-yl)-2-oxoethyl)piperidin-4-yl)methyl)-5-(trifluoromethyl)benzamide] | 830 nM | 550 nM
27 | CS(=O)(=O)NC1(CN2CCC(CNC(=O)c3cc(C(F)(F)F)cc(C(F)(F)F)c3)CC2)CC1 [Compound 357, N-((1-((1-(methylsulfonamido)cyclopropyl)methyl)piperidin-4-yl)methyl)-3,5-bis(trifluoromethyl)benzamide] | 1270 nM | 2150 nM
28 | CCS(=O)(=O)NC1(CN2CCC(CNC(=O)c3cc(C(F)(F)F)cc(C(F)(F)F)c3)CC2)CC1 [Compound 358, N-((1-((1-(ethylsulfonamido)cyclopropyl)methyl)piperidin-4-yl)methyl)-3,5-bis(trifluoromethyl)benzamide] | 530 nM | 520 nM
29 | O=C(NCC1CCN(CC2(NS(=O)(=O)C3CC3)CC2)CC1)c1cc(C(F)(F)F)cc(C(F)(F)F)c1 [Compound 359, N-((1-((1-(cyclopropanesulfonamido)cyclopropyl)methyl)piperidin-4-yl)methyl)-3,5-bis(trifluoromethyl)benzamide] | 490 nM | 380 nM
30 | O=C(NCC1CCN(CC2(NS(=O)(=O)CCC(F)(F)F)CC2)CC1)c1cc(C(F)(F)F)cc(C(F)(F)F)c1 [Compound 360, 3,5-bis(trifluoromethyl)-N-((1-((1-(3,3,3-trifluoropropylsulfonylamido)cyclopropyl)methyl)piperidin-4-yl)methyl)benzamide] | 250 nM | < 300 nM

Source: patent US8569344B2, “N-piperidinyl acetamide derivatives as calcium channel blockers” (Zalicus Pharmaceuticals Ltd., priority 2008, dated 2013)
